Data on 13 compounds can be found in BindingDB's records for doi:10.1016/j.ejmech.2015.07.016 (China Pharmaceutical University, 2015).

pIC50: −log10 of the molar value. Square brackets hold non-standard residues; d marks the D form. Peptide text beside a SMILES is read from it. pGlu = O=C1CC[C@@H](C(=O)O)N1 Where only a bound is given, the exact number is not on record here.

The nature of test [1]: Antagonist activity at GP2b/3a receptor in New Zealand rabbit platelet-rich plasma assessed as inhibition of ADP-induced platelet aggregation preincubated for 1 min followed by addition of ADP by aggregometer.
The nature of test [2]: Antagonist activity at GP2b/3a receptor in New Zealand rabbit platelet-rich plasma assessed as inhibition of U46619-induced platelet aggregation preincubated for 1 min followed by addition of ADP by aggregometer.
Test [3] in a line: Antagonist activity at GP2b/3a receptor in New Zealand rabbit platelet-rich plasma assessed as inhibition of collagen-induced platelet aggregation preincubated for 1 min followed by addition of ADP by aggregometer.
The nature of test [4]: Antagonist activity at GP2b/3a receptor in New Zealand rabbit platelet-rich plasma assessed as inhibition of thrombin-induced platelet aggregation preincubated for 1 min followed by addition of ADP by aggregometer.

As to `Cc1ccc(S(=O)(=O)N[C@@H](Cc2c[nH]c3ccc(OCCCCC4CCNCC4)cc23)C(=O)O)cc1`, the pIC50 in test [1] was 3.97. For the compound `O=C(O)[C@H](Cc1c[nH]c2ccc(OCCCCC3CCNCC3)cc12)NS(=O)(=O)c1ccc(Br)cc1`, the negative logarithm of the IC50 (pIC50) is 3.23 in test [2], 3.17 in test [3], 4.61 in test [1] and 3.91 in test [4]. For the compound `O=C(N[C@@H](Cc1c[nH]c2ccc(OCCCCC3CCNCC3)cc12)C(=O)O)c1ccc([N+](=O)[O-])cc1`, the pIC50 in test [1] was 3.31.

On to `COc1ccc(C(=O)N[C@@H](Cc2c[nH]c3ccc(OCCCCC4CCNCC4)cc23)C(=O)O)cc1`, for which the pIC50 in test [1] was < 3.30.

With `O=C(N[C@@H](Cc1c[nH]c2ccc(OCCCCC3CCNCC3)cc12)C(=O)O)c1cccc(F)c1`, the pIC50 in test [1] is 4.02.

As to `O=C(N[C@@H](Cc1c[nH]c2ccc(OCCCCC3CCNCC3)cc12)C(=O)O)c1cc(Cl)cc(Cl)c1`, the negative logarithm of the IC50 (pIC50) in test [1] is 4.06.

`O=C(N[C@@H](Cc1c[nH]c2ccc(OCCCCC3CCNCC3)cc12)C(=O)O)c1ccccc1`: the pIC50 in test [1] is < 3.30.

On to `NC(=O)C[C@H](NC(=O)[C@@H]1CCC(=O)N1)C(=O)N[C@@H](Cc1c[nH]c2ccccc12)C(=O)O` ([pGlu]-Asn-Trp-OH), for which the pIC50 in test [1] was < 3.30. As to `O=C(N[C@@H](Cc1c[nH]c2ccc(OCCCCC3CCNCC3)cc12)C(=O)O)c1ccc(F)cc1`, in test [1], the negative logarithm of the IC50 (pIC50) is 4.03. Still for that read-out and setting: the figure for `O=C(O)[C@H](Cc1c[nH]c2ccc(OCCCCC3CCNCC3)cc12)NS(=O)(=O)c1ccc(F)cc1` is 4.03; for `COc1ccc(S(=O)(=O)N[C@@H](Cc2c[nH]c3ccc(OCCCCC4CCNCC4)cc23)C(=O)O)cc1` it is < 3.30; for `O=C(O)[C@H](Cc1c[nH]c2ccc(OCCCCC3CCNCC3)cc12)NS(=O)(=O)c1ccc([N+](=O)[O-])cc1` it is 3.37. The same measure, in the same setting: the figure for `O=C(O)[C@H](Cc1c[nH]c2ccc(OCCCCC3CCNCC3)cc12)NS(=O)(=O)c1ccccc1` is 4.02.
